Measurements from patent publication US20240197687A1, “METHODS OF TREATING NEUROINFLAMMATION AND INHIBITING MONOAMINE OXIDASE-A AND RESTORING/UPREGULATING/INCREASING IL-13 AND AND PGC-1 BY ADMINISTERING ORAL DOSAGE FORM CONTAINING MICRONIZED AND NONMICRONIZED PARTICULATE METAXALONE, ALGINIC ACID AND PROPYLENE GLYCOL ALGINATE” (Primus Pharmaceuticals, Inc., priority 2022, published 2024).

Experiments:
[1] = tested on: HMC3 microglial cells; test: RT-qPCR mRNA expression in IL-1β-stimulated HMC3 microglial cells; format: cell-based, Human; details: metaxalone 10, 20, 40 μg/mL, p<0.0001 vs. IL-1β
Method: Human microglial HMC3 cell line (CRL-3304) was obtained from ATCC (American Type Culture Collection; Manassas, VA, USA). Cells were cultured in Eagle's minimum essential medium (EMEM) with a supplement of 10% fetal bovine serum (FBS) and 1% antibiotic mixture, and were incubated at 37° C. with 5% of CO2. Both medium and supplements were provided by ATCC (Manassas, VA, USA). Cells were seeded in 6-well plates at a density of 4×10^5 cells/well. A stock solution of metaxalone (Sigma Aldrich, Milan, Italy) was prepared by dissolving metaxalone in DMSO. Sixteen hours after plating (time 0), metaxalone was added at the doses of 10, 20, and 40 μg/mL 1 h following IL-1β stimulation (5 ng/mL; Sigma Aldrich, Milan, Italy). After 6 h cells were harvested for mRNA evaluation. In a separate set of plates, cells were incubated for 24 h before MTT assay to evaluate cell viability. The dose-response curve for IL-1β stimulation can be found at Supplemental FIG. S1. Total RNA was extracted from human microglial HMC3 for RT-qPCR using Trizol LS reagent (Invitrogen, Carlsbad, CA, USA). Two μg of total RNA was reverse transcribed in a final volume of 20 μL using a Superscript VILO kit (Invitrogen, Carlsbad, CA, USA). […] The final primer concentration used to carry out the analysis was 10 μM. Samples from each group were run in duplicate and β-actin was used as an endogenous control. Results were calculated using the 2-ΔΔCT method and expressed as n-fold increase in gene expression using control group as calibrator. […]. et al. Activation of A2A Receptor by PDRN Reduces Neuronal Damage and Stimulates WNT/β-CATENIN Driven Neurogenesis in Spinal Cord Injury. Front. Pharmacol. 2018, 9, 506. Pizzino, G. et al. Effects of the antagomiRs 15b and 200b on the altered healing pattern of diabetic mice. Br. J. Pharmacol. 2018, 175, 644-655.

[2] = tested on: HMC3 microglial cells; test: Western blot protein levels in IL-1β-stimulated HMC3 cells; format: cell-based, Human; details: metaxalone 10, 20, 40 μg/mL, p<0.0001 vs. IL-1β
Method: Western Blot Analysis. HMC3 cells were homogenized in RIPA buffer (25 mM Tris/HCl, pH 7.4; 1.0 mM EGTA; and 1.0 mM EDTA) with 1% of NP40, 0.5% of phenyl methylsulfonyl fluoride (PMSF), aprotinin, and leupeptin and pepstatin (10 μg/mL each) to perform protein extraction. Lysates were centrifuged at 15,000×g for 15 min at 4° C. and the supernatant was collected for protein determination using a specific kit (Bio-Rad DC; Bio-Rad, Richmond, CA, USA). Samples were denatured in a reducing buffer (62 mM Tris pH 6.8, 10% glycerol, 2% SDS, 5% β-mercaptoethanol, and 0.003% bromophenol blue) and proteins were separated by electrophoresis on SDS polyacrylamide gels. Following electrophoresis, samples were transferred onto a PVDF membrane (Amersham, Little Chalfont, UK) in a transfer buffer (39 mM glycine, 48 mM Tris pH 8.3, and 20% methanol) at 200 mA for 1 h. The obtained membranes were incubated with 5% non-fat dry milk in TBS/0.1% Tween for 1 h at room temperature, washed 3 times in TBS/0.1% Tween, and incubated with primary antibodies to detect pNF-κB, PPARγ, PGC-1α (Cell Signaling, Danvers, MA, USA), NRF-2, and MAO-A (Abcam, Cambridge, UK), diluted in TBS/0.1% Tween overnight at 4° C. The day after, following 3 washes with TBS/0.1% Tween, membranes were incubated with secondary peroxidase-conjugated goat anti-mouse and anti-rabbit antibodies (KPL, Gaithersburg, MD, USA) for 1 h at room temperature. After washing, membranes were analyzed by the enhanced chemiluminescence system (LumiGlo reserve; Seracare, Milford, MA, USA). The protein signal was detected and quantified by scanning densitometry using a bio-image analysis system (C-DiGit, Li-cor, Lincoln, NE, USA). The results were expressed as relative integrated intensity and β-actin (Cell Signaling, Danvers, MA, USA) was used to confirm equal protein loading. (See, […]. et al. β-Caryophyllene Inhibits Cell Proliferation through a Direct Modulation of CB2 Receptors in Glioblastoma Cells. Cancers 2020, 12, 1038).

[3] = tested on: CYP1A2, CYP2B6, CYP2C9, CYP2C19, CYP2D6, CYP2E1, CYP3A; details: cited from earlier work
[4] = tested on: Mouse Macrophages RAW264.7 cells; details: LPS-stimulated mouse macrophages; cited from earlier work

Cc1cc(C)cc(OCC2CNC(=O)O2)c1 (stereo not shown) [metaxalone, 5-[(3,5-dimethylphenoxy)methyl]-2-oxazolidinone]
IL-6 mRNA expression ([1]; IL-1β (5 ng/mL)-stimulated HMC3 cells (IL-6 increased by IL-1β), 6 h, dose-dependent): significantly reverted
IL-13 mRNA expression ([1]; IL-1β (5 ng/mL)-stimulated HMC3 cells (IL-13 decreased by IL-1β), 6 h, dose-dependent): significantly reverted
TNF-α mRNA expression ([1]; IL-1β (5 ng/mL)-stimulated HMC3 cells (TNF-α increased by IL-1β), 6 h, dose-dependent): significantly reverted
NF-κB mRNA expression ([1]; IL-1β-stimulated HMC3 cells, dose-dependent): significantly reduced
NRF-2 mRNA expression ([1]; IL-1β-stimulated HMC3 cells): significantly upregulated
PGC-1α mRNA expression ([1]; IL-1β-stimulated HMC3 cells): marked increase
PPARγ mRNA expression ([1]; IL-1β-stimulated HMC3 cells): marked increase
MAO-A mRNA expression ([1]; IL-1β-stimulated microglia cells, dose-dependent): markedly reduced
NRF-2 protein levels ([2]; dose-dependent): significantly increased
PGC-1α protein expression [2]: stimulated
PPARγ protein expression [2]: stimulated
p-NF-κB protein levels [2]: blunted the increase
CYP induction [3]: inducer of CYP1A2 and CYP3A4
CYP inhibition [3]: inhibitor of CYP1A2, CYP2B6, CYP2C9, CYP2C19, CYP2D6, CYP2E1, and CYP3A
CYP substrate status [3]: substrate of CYP1A2 and CYP2C19
inflammatory cytokines [4]: robust reduction
